Test results taken from US8759377B2, “Substituted dioxopiperidines and dioxopyrrolidines as MGLUR4 allosteric potentiators, compositions, and methods of treating neurological dysfunction” (Vanderbilt University, priority 2009, dated 2014).
Like-named read-outs stand apart in the source and are kept apart here.

How the values were obtained:
human mGluR4 = target: T1, human mGluR4 (Homo sapiens, UniProt Q14833); assay: human mGluR4 potentiation, Ca2+-sensitive dye fluorescence assay in transfected CHO cells; assay type: cell-based; conditions: for Emax: CHO, maximum extent of potentiation, human mGluR4, read-out: hGluMax; for EC50: EC50 for potentiation, human mGluR4, with EC20 concentration of agonist, read-out: hEC50
T1 construct: expressed in transfected cells; host or cells: CHO cells
T1 sequence (Q14833 33-912): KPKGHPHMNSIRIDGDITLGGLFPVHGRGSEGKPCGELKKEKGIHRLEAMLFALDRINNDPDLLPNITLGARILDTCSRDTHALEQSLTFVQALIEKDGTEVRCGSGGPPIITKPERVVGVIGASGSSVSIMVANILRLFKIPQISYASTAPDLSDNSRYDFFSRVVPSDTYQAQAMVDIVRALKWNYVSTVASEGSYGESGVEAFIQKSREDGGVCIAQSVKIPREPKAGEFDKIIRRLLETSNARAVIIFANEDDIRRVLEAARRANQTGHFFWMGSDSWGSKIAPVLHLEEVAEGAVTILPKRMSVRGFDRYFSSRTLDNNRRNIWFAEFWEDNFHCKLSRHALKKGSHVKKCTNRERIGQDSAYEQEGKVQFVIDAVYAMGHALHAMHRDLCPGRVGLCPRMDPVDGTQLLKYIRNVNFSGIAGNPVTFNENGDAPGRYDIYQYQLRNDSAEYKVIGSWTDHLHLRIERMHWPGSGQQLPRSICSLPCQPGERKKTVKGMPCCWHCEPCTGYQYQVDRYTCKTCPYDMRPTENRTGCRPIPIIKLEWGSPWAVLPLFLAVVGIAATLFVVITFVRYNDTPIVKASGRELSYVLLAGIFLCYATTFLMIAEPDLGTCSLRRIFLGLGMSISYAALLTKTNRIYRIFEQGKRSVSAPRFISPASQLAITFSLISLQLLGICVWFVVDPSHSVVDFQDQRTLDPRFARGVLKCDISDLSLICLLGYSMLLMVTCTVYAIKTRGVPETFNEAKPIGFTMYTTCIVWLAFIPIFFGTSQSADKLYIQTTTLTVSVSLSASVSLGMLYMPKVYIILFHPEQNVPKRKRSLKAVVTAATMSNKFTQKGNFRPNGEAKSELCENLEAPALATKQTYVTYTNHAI
Protocol: (§1) The disclosed compounds and compositions can be evaluated for their ability to act as a potentiator of metabotropic glutamate receptor activity, in particular mGluR4 activity, by any suitable known methodology known in the art. For example, Chinese Hamster Ovary (CHO) cells transfected with human mGluR4 or HEK cells co-transfected with rat mGluR4 and the G-protein regulated Inwardly Rectifying Potassium channel (GIRK) were plated in clear bottom assay plates for assay in a Hamamatsu FDSS Fluorometric Plate Reader. The cells were loaded with either a Ca2+-sensitive fluorescent dye or the thallium responsive dye and the plates were washed and placed into a suitable kinetic plate reader. […] Approximately two and a half minutes later, a concentration of mGluR4 orthosteric agonist (e.g. glutamate or L-AP4) eliciting approximately 20% (EC20) of the maximal agonist response was added to the cells, and the response was measured. Two minutes later, a concentration of mGluR4 agonist (e.g. glutamate or L-AP4) eliciting 80% (EC80) of the maximal agonist response was added to the cells, and the response was measured. For rat mGluR4/GIRK experiments, a baseline was established for approximately five seconds, disclosed compounds were added, and either an EC20 or EC80 concentration of agonist was added approximately two and one half minutes later.
(§2) The above described assay operated in two modes. In the first mode, a range of concentrations of the disclosed compounds are added to cells, followed by a single fixed concentration of agonist. If the compound acts as a potentiatior, an EC50 value for potentiation and a maximum extent of potentiation by the compound at this concentration of agonist is determined by non-linear curve fitting. If the compound acts as a noncompetitive antagonist, an IC50 value is determined by non-linear curve fitting. In the second mode, several fixed concentrations of the disclosed compounds are added to various wells on a plate, followed by a range in concentrations of agonist for each concentration of disclosed compound. The ECso values for the agonist at each concentration of compound are determined by non-linear curve fitting. A decrease in the EC50 value of the agonist with increasing concentrations of the sample compound (a leftward shift of the agonist concentration-response curve) is an indication of the degree of mGluR4 potentiation at a given concentration of the sample compound. A decrease in the maximal response of the agonist with increasing concentrations of the sample compounds, with or without a rightward shift in agonist potency, is an indication of the degree of noncompetitive antagonism at mGluR4. The second mode also indicates whether the sample compounds also affect the maximum response to mGluR4 to agonists.

rat mGluR4 = target: T2, rat mGluR4 (Rattus norvegicus, UniProt P31423); assay: rat mGluR4/GIRK potentiation, thallium responsive dye assay in co-transfected HEK cells; assay type: cell-based; conditions: for rGluMax: maximum extent of potentiation
T2 construct: expressed in transfected cells; host or cells: HEK cells
T2 sequence (P31423 33-912): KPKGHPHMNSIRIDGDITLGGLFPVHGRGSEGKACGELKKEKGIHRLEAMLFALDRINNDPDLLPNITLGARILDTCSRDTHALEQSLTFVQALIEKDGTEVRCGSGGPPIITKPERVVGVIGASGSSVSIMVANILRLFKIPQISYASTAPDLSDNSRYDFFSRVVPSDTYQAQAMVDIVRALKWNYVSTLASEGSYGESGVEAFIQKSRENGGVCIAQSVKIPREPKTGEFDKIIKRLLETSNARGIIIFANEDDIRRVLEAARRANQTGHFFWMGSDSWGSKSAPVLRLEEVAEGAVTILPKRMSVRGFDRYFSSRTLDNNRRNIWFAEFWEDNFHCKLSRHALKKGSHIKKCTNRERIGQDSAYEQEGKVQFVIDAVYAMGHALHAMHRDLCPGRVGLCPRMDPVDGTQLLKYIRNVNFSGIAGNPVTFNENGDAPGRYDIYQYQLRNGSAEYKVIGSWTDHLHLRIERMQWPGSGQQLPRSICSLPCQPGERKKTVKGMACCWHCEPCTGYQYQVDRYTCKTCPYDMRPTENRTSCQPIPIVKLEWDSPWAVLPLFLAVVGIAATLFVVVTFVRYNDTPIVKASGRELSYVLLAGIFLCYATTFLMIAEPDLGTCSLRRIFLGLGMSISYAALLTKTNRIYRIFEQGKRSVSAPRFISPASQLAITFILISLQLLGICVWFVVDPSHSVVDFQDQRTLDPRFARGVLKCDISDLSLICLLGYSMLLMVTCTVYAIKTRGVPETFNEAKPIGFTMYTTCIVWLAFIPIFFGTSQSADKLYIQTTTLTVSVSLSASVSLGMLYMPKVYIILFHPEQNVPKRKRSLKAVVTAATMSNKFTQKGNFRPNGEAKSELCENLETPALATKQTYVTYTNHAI
Protocol: as §1, §2

SMILES | Emax (human mGluR4) [%] | rGluMax (rat mGluR4; rat mGluR4/GIRK) | EC50 (rat mGluR4) [nM] | EC50 (human mGluR4) [nM] | EC50 (rat mGluR4; EC50 for potentiation, rat mGluR4/GIRK, with EC20 concentration of agonist, read-out: rEC50) [nM]
O=C(Nc1ccc(N2C(=O)[C@@H]3[C@H](C2=O)[C@@H]2C=C[C@H]3CC2)c(Cl)c1)c1ccccn1 [Example 1] | 222 |  |  |  | 
O=C(Nc1ccc(N2C(=O)C3[C@H]4C=C[C@H](C4)[C@H]3C2=O)c(Cl)c1)c1ccccn1 (some centres unmarked) [Example 2] | 211 | 110.2 |  |  | 
O=C(Nc1ccc(N2C(=O)CC(c3ccccc3)C2=O)c(Cl)c1)c1ccccn1 (centres unmarked) [Example 3, N-(3-chloro-4-(2,5-dioxo-3-phenylpyrrolidin-1-yl)phenyl)picolinamide] | 219 | 128.7 | 690 |  | 
O=C(Nc1ccc(N2C(=O)CC(Cc3ccccc3Cl)(c3ccccc3)C2=O)c(Cl)c1)c1ccccn1 (centres unmarked) [Example 4, N-(3-chloro-4-(3-(2-chlorobenzyl)-2,5-dioxo-3-phenylpyrrolidin-1-yl)phenyl)picolinamide] | 88 |  |  | 329 | 
CC1(C)CC(=O)N(c2ccc(NC(=O)c3ccccn3)cc2Cl)C1=O [Example 5, N-(3-chloro-4-(3,3-dimethyl-2,5-dioxopyrrolidin-1-yl)phenyl)picolinamide] | 155 |  |  | 1810 | 
CC1(c2ccccc2)CC(=O)N(c2ccc(NC(=O)c3ccccn3)cc2Cl)C1=O (centres unmarked) [Example 6, N-(3-chloro-4-(3-methyl-2,5-dioxo-3-phenylpyrrolidin-1-yl)phenyl)picolinamide] | 245 |  |  |  | 
O=C(Nc1ccc(N2C(=O)[C@H]3CC[C@H](c4ccccc4)C[C@H]3C2=O)c(Cl)c1)c1ccccn1 [Example 7] | 209 |  |  | 1950 | 
O=C(Nc1ccc(N2C(=O)[C@@H]3CCCC[C@H]3C2=O)c(Cl)c1)c1ccccn1 [Example 8, N-(3-chloro-4-((3aR,7aR)-1,3-dioxo-1H-isoindol-2(3H,3aH,4H,5H,6H,7H,7aH)-yl)phenyl)picolinamide] | 189 | 123.3 |  |  | 680
O=C(Nc1ccc(N2C(=O)[C@H]3CCCC[C@H]3C2=O)c(Cl)c1)c1ccccn1 [Example 9, N-(3-chloro-4-((3aR,7aS)-1,3-dioxo-1H-isoindol-2(3H,3aH,4H,5H,6H,7H,7aH)-yl)phenyl)picolinamide] | 116 |  |  |  | 
CC1CCC2C(=O)N(c3ccc(NC(=O)c4ccccn4)cc3Cl)C(=O)C2C1 (centres unmarked) [Example 10, N-(3-chloro-4-(5-methyl-1,3-dioxo-1H-isoindol-2(3H,3 aH,4H,5H,6H,7H,7aH)-yl)phenyl)picolinamide] | 215 |  |  | 574 | 
O=C(Nc1ccc(N2C(=O)[C@H](c3ccccc3)[C@H](c3ccccc3)C2=O)c(Cl)c1)c1ccccn1 [Example 11, N-(3-chloro-4-((3R,4S)-2,5-dioxo-3,4-diphenylpyrrolidin-1-yl)phenyl)picolinamide] | 64 |  |  | 1140 | 
O=C(Nc1ccc(N2C(=O)C3=C(C2=O)c2ccccc2CC3)c(Cl)c1)c1ccccn1 [Example 12, N-(3-chloro-4-(1,3-dioxo-4,5-dihydro-1H-benzo[e]isoindol-2(3H)-yl)phenyl)picolinamide] | 276 |  |  | 254 | 
O=C(Nc1ccc(N2C(=O)Cc3ccccc3C2=O)c(Cl)c1)c1ccccn1 [Example 13, N-(3-chloro-4-(1,3-dioxo-3,4-dihydroisoquinolin-2(1H)-yl)phenyl)picolinamide] | 256 |  |  | 118 | 
O=C(Nc1ccc(N2C(=O)CC3(CCCCC3)CC2=O)c(Cl)c1)c1ccccn1 [Example 14, N-(3-chloro-4-(2,4-dioxo-3-azaspiro[5.5]undecan-3-yl)phenyl)picolinamide] | 193 |  |  | 163 | 
O=C(Nc1ccc(N2C(=O)CC3(CCCCC3)C2=O)c(Cl)c1)c1ccccn1 [Example 15, N-(3-chloro-4-(1,3-dioxo-2-azaspiro[4.5]decan-2-yl)phenyl)picolinamide] | 139 | 86.1 |  |  | 
O=C(Nc1ccc(N2C(=O)CCC2=O)c(Cl)c1)c1ccccn1 [Example 16, N-(3-chloro-4-(2,5-dioxopyrrolidin-1-yl)phenyl)picolinamide] | 119 |  |  | 5940 | 
O=C(Nc1ccc(N2C(=O)CCC2=O)c(Cl)c1)c1cccc(F)n1 [Example 17, N-(3-chloro-4-(2,5-dioxopyrrolidin-1-yl)phenyl)-6-fluoropicolinamide] | 40 |  |  | 3130 | 
O=C(Nc1ccc(N2C(=O)CCC2=O)c(Cl)c1)c1cccc(Cl)n1 [Example 18, 6-Chloro-N-(3-chloro-4-(2,5-dioxopyrrolidin-1-yl)phenyl)picolinamide] | 37 |  |  | 2550 | 
O=C(Nc1ccc(N2C(=O)CCC2=O)c(Cl)c1)c1ccncn1 [Example 19, N-(3-chloro-4-(2,5-dioxopyrrolidin-1-yl)phenyl) pyrimidine-4-carboxamide] | 46 |  |  | 10000 | 
O=C(Nc1ccc(N2C(=O)CCC2=O)c(Cl)c1)c1nccs1 [Example 20, N-(3-chloro-4-(2,5-dioxopyrrolidin-1-yl)phenyl)thiazole-2-carboxamide] | 69 |  |  | 7730 | 
O=C(Nc1ccc(N2C(=O)CCC2=O)c(Cl)c1)c1cscn1 [Example 21, N-(3-chloro-4-(2,5-dioxopyrrolidin-1-yl)phenyl)thiazole-4-carboxamide] | 62 |  |  | 8660 | 
